Reference: patent US11160767B2, “4,4′-trans-dihydroxystilbene for use in treating cancer” (The George Washington University, a Congressionally …, priority 2017, dated 2021)

How the values were obtained:
SKOV3 = experiment: DHS and cisplatin, SKOV3 cells; type: cell-based, human
Source text: The effect of DHS on a human SKOV3 ovarian cell line and its cisplatin-resistant subline, SKOV3/CP7, was investigated.

HCT116 cells [1] = experiment: BrdU incorporation by FACS; type: cell-based, human; conditions: reduced from 46.6%, 1 to 20 μM DHS
Source text: To test whether DHS can repress DNA replication, BrdU incorporation was examined using an immunofluorescent assay. […] BrdU incorporation was tracked by fluorescence-activated cell sorting (FACS).

cancer cell lines = experiment: NCI Development Therapeutics Program cell line growth; type: cell-based; conditions: NCI DTP cell lines
Description: (§1) To confirm the cell killing effect of DHS, a clonogenic colony formation assay was conducted. […] The effect of DHS on growth of cancer cell lines was analyzed using The NCI Development Therapeutics Program (DTP).

Topoisomerase II = Topoisomerase II decatenation assay; type: biochemical
Source text: In addition, resveratrol has been previously reported to interact with DNA grooves (Usha et al., 2006). […] A similar result with And-1, RRM1, and RRM2 was also observed in DHS resistant HCT116 cells (data not shown).

And-1 = biological target: T1, And-1 (Homo sapiens, UniProt O75717); experiment: Cellular thermal shift assay, And-1; type: cell-based; conditions: HCT116 cells
T1 construct: endogenous in cells; host or cells: HCT116
T1 sequence (O75717 whole entry): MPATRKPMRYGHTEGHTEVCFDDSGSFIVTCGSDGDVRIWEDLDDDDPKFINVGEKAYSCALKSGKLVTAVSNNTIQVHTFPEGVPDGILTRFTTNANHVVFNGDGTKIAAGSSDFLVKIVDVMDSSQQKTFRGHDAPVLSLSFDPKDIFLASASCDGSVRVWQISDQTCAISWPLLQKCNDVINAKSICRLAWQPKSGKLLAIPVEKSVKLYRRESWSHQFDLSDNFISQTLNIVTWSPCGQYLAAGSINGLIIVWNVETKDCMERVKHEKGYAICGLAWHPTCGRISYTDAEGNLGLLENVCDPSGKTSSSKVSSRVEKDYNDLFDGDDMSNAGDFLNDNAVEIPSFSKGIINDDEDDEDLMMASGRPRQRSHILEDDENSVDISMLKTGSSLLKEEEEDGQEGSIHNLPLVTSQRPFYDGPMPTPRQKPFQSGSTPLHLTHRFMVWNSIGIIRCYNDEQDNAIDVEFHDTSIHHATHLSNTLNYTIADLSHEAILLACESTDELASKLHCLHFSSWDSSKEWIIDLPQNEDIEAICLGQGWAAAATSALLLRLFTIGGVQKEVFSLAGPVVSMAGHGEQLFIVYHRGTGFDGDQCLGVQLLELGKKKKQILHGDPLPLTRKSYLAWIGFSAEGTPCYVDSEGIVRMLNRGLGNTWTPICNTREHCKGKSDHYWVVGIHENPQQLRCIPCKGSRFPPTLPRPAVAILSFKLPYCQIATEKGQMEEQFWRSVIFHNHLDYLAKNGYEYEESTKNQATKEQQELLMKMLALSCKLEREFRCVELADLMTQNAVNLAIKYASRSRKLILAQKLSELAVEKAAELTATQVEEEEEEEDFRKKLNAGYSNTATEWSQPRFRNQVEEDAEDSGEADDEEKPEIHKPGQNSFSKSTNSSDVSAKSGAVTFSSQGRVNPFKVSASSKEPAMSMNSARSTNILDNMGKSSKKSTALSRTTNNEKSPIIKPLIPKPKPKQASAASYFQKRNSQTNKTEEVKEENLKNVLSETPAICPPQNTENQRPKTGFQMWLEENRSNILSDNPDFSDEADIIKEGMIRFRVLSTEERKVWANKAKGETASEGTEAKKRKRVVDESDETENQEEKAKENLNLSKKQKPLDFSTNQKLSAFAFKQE
Description: In order to study the mechanisms by which DHS induces down-regulation of And-1, RRM1, and RRM2 proteins, DHS-resistant HCT116 cells were generated (FIG. 9C). […] Next, it was investigated whether DHS directly binds to And-1, RRM1, or RRM2. A cellular thermal shift assay (Jafari et al., 2014) was conducted for And-1 (FIG. 9E). […] A coimmunoprecipitation (CoIP) assay was conducted to determine whether And-1, RRM1, and RRM2 interact in the same complex. The result implied that […] (FIG. 9F).

HCT116 cells [2] = experiment: Clonogenic colony formation assay; type: cell-based, human; conditions: 0 to 50 μM
Description: as §1

RRM2 [3] = biological target: T2, RRM2 (Homo sapiens, UniProt P31350); experiment: Ubiquitination assay; type: cell-based; conditions: HCT116 cells, with MG-132 pre-treatment
T2 construct: endogenous in cells; host or cells: HCT116
T2 sequence (P31350 1-389): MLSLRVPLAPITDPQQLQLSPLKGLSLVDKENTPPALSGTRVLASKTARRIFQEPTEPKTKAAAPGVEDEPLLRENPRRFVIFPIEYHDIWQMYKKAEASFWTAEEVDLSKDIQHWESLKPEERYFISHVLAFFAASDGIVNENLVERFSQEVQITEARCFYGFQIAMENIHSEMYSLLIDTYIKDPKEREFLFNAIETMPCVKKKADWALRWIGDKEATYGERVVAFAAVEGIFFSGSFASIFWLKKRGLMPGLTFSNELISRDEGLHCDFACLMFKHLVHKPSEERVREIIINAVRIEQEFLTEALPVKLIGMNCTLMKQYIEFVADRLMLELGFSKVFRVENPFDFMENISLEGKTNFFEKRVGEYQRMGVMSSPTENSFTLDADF
Description: It was next investigated whether treatment with DHS leads to reduced levels of RRM2 through the proteasome degradation pathway. […] To confirm whether degradation of RRM1 is dependent on RRM2, RRM1 or RRM2 expression was knocked down by treatment with siRNAs and resultant protein amounts were detected. […] Next, a ubiquitination assay with MG-132 pre-treatment was performed to determine whether a ubiquitination reaction is involved in DHS-mediated RRM2 degradation. […] According to the literature, Cyclin F is the E3 ligase that ubiquitinates RRM2 (D'Angiolella et al., 2012). Thus, the amount of RRM2 in cells was determined after knockdown of Cyclin F by siRNA. […] Cell viability after DHS exposure was also investigated in cells in which either RRM2 or Cyclin F expression was knocked down by siRNA.

RRM2 [4] = biological target: T2, RRM2; experiment: Thermal shift assay in HCT116 cells, RRM2; type: cell-based
Description: To investigate binding of DHS to RRM1 and RRM2, a thermal shift assay was performed in HCT116 cells treated with DMSO (vehicle), resveratrol, DHS, gemcitabine, or hydroxyurea (Hu). Gemcitabine is known to bind RRM1 (Plunkett et al., 1995 and Chen et al., 2011), and Hu has been reported to bind RRM2 (Thelander et al., 1985). […] DHS stabilized RRM2 protein in a dose responsive manner (5 to 20 μM DHS; FIG. 11A). To rule out nonspecific effects of DHS on RRM2, an in vitro thermal shift assay was conducted. Purified RRM1 and RRM2 were mixed and then incubated with DHS or Hu for 4 hours before performing the assay.

[5] = system: phosphorylated histone 2AX; experiment: γH2AX immunostaining; type: cell-based, human; conditions: HCT116 cells, 10 μM for 12 hours
HCT116 cells [6] = experiment: Cell-cycle assay; type: cell-based, human; conditions: 10 μM
Description: A cell-cycle assay was conducted to study whether DHS would affect cell-cycle progression.

[7] = biological target: T3, truncated-RRM2 protein (deletion of GLU147 to ILE166) (Homo sapiens, UniProt P31350, DEL147-166); experiment: Thermal shift assay, truncated RRM2; type: cell-based; conditions: HCT116 cells
T3 construct: expressed in transfected cells; host or cells: HCT116
T3 sequence (P31350 with tags, fused parts or gaps DEL147-166): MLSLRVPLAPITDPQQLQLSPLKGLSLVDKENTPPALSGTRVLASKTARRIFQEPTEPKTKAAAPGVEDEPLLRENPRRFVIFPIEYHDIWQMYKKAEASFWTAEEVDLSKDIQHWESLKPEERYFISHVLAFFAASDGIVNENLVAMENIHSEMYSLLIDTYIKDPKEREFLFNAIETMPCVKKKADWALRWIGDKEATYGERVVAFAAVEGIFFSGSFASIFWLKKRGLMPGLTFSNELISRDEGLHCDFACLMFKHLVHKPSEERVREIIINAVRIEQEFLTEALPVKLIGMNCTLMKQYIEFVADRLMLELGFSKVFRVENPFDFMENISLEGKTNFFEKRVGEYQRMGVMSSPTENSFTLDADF
Source text: To verify the DHS binding site on RRM2, a RRM2 construct with a deletion of GLU147 to ILE166 was generated. […] Since Hu is also known to interact with RRM2 protein, the effect of DHS on Hu binding to RRM2 was investigated using a cellular thermal shift assay with KB-Hu (an Hu resistant oral cancer cell line).

[8] = mouse, in vivo
Description: Xenograft mouse models. […] In xenograft studies, HCT116 (3×10^6 cells) and IGROV3/CP2 (5×10^6 cells) suspended in 100 μl of phosphate buffered saline (PBS, pH 7.4) were injected subcutaneously into the lower flank of the mice. Testing compounds were dissolved in DMSO/Tween 80/saline (10:10:80; v/v/v) buffer and were used to treat animals through intraperitoneal (i.p.) injection. […] The body weight of animals was measured throughout the study. Tumor diameters were measured with digital calipers, and the tumor volume in mm^3 was calculated by the formula: Volume=(width)^2×length/2.
HCT116 cells (5×10^6) were injected subcutaneously in nude mice and grown to approximately 100 mm^3 in volume. […] To study the preclinical toxicity of DHS, samples of hearts, livers, spleens, lung, and kidneys were collected on Day 38 and sections were stained for histological examination.

PANC-1 = experiment: In vitro cytotoxicity (SRB assay), PANC-1; type: cell-based; conditions: Homo sapiens, 72 hours
Description: Cell lines and cell culture. HCT116, U205, PANC-1, MDA-231 cell lines were purchased from the American Type Culture Collection (Rockville, Md., US). Cells were cultured in the DMEM medium (Lonza, Basel, Switzerland) containing 10% fetal bovine serum (Gibco, Grand Island, N.Y., US), 100 Units/ml penicillin, 100 Units/mL streptomycin, […] L-glutamine (Gibco, Grand Island, N.Y., US) at 37° C. in a humidified atmosphere with 5% CO2.
In vitro cytotoxicity assays. […] SRB assay (Vichai and Kirtikara, 2006) was performed and the absorbance at 510 nm was read with a plate reader. The proliferation rate was calculated according to the Manufacturer's instruction. The IC50 value for each compound was determined from dose-effect relationship using the CompuSyn software (version 1.0.1; CompuSyn, Inc, Paramus, N.J.) (Chou, 2006). Cell proliferating doubling time was monitored over a period of 72 hours.

## Oc1ccc(/C=C/c2ccc(O)cc2)cc1 [DHS, 4,4′-trans-dihydroxystilbene]
SKOV3
  Sensitivity to DHS alone: sensitive to DHS treatment alone
HCT116 cells [1]
  BrdU incorporation: 9.52%
Cancer cell lines
  Cancer cell growth (GI50) compared to resveratrol: improved effect on suppressing cancer cell growth as compared to resveratrol
Topoisomerase II
  Topoisomerase II activity (decatenation of kDNA): inhibits Topoisomerase II activity
And-1
  Binding to And-1 (cellular thermal shift): does not bind to And-1
HCT116 cells [2]
  Colony formation: stronger suppression effect on HCT116 cell colony formation than resveratrol
RRM2 [3]
  Ubiquitinated RRM2: ubiquitinated RRM2 was increased by DHS treatment
RRM2 [4]
  RRM2 levels in thermal shift assay (binding): binds to RRM2
[5]
  Levels of γH2AX: Increased levels of phosphorylated histone 2AX
HCT116 cells [6]
  Effect on cell-cycle progression: robust S-phase arrest
[7]
  Thermal stability of truncated RRM2: not able to maintain thermal stability of the truncated-RRM2 protein
[8]
  Histology, hearts, livers, lung, and kidneys: no obvious damage
  Histology, spleens: Minor damage
PANC-1
  IC50: 22 ± 6.42 µM
